Measurements: US7968107B2, “Oil-based suspension concentrates” (Bayer Cropscience AG, priority 2004, dated 2011)

Test: Penetrants at the level of the cuticle (desorption method, tracer mobility with and without additive)
Conditions: mobility of radiolabelled weak organic acid tracer in peach leaf cuticle; receptor buffer pH 7
Source text: Additives which act as penetrants at the level of the cuticle may be referred to below as accelerator additives (cf. Schönherr and Baur, 1994, Pesticide Science 42, 185-208). The feature of accelerator additives is their ability to penetrate from the aqueous spray liquor and/or from the spray covering into the cuticle and thereby to increase the mobility of active substances in the cuticle. Other additives such as polyethylene glycol, in contrast, act only in the spray covering (via the liquid phase) or act only as wetting agents, such as sodium dodecyl sulphate, for example.
This test determines the influence of additives on the penetration properties of other substances at the level of the cuticle. The mobility of the test substance in the cuticle is measured with and without an additive, by way of a desorption method. The method is published in detail in the literature (Baur et al., 1997, Pesticide Science, 51, 131-152) and only the principles and any deviations are described below.
As a test substance with the function of a tracer a selection was made here of a radiolabelled weak organic acid. Plant material used comprised the enzymatically isolated leaf cuticles of the top face of peach leaves from outdoor trees. The cuticles were installed in specially manufactured stainless steel diffusion cells. The tracer, in a citrate buffer at a pH of 3 in the dissolved state, was applied to the side originally facing the inside of the leaf. This inner side readily takes up the small radioactive amount of the tracer in the undissociated acid form. Subsequently this inner side was covered and maintained at 100% atmospheric humidity. The morphological outer side of the leaf cuticle, normally exposed to the air, was then contacted with a buffer (pH 7), with the receptor solution, and the desorption was started. The penetrated acid form of the test substance is dissociated by the receptor and the desorption follows first-order kinetics. The desorption constant is proportional to the mobility of the tracer in the cuticle. […]

| Substance | Average effect (ratio of desorption slopes with additive to without additive) |
| --- | --- |
| CH3—(CH2)8—O—(-EO—)8—(—BO—)2—CH3 [Ie-2] | 89.1 |
| CH3—(CH2)10—O—(-EO—)6—(—BO—)2—CH3 [Ie-1] | 78.4 |
| isotridecyl-(6) ethoxylate [Isotridecyl-(6) ethoxylate, open, reference compound] | 42.3 |
